Data published in patent US20250367166A1, “NEXT GENERATION DIPROVOCIMS THAT ACTIVATE THE INNATE AND ADAPTIVE IMMUNE RESPONSE” (The Scripps Research Institute, priority 2022, published 2025).
Where two headings read alike, the source gives them in different places.

Key:
TLR1/TLR2 [1] = biological target: TLR1/TLR2 (Homo sapiens, UniProt O60603+Q15399); test: TNF-α release from PMA-differentiated human THP-1 cells (ELISA); settings: for Emax: THP-1, 4 h, read-out: Efficacy (magnitude) of response versus diprovocim-1 (100%), THP-1; for EC50: read-out: EC50 (nM) (THP-1): EC50 TNF-α release from human THP-1 cells;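 as to all read-outs here: cells exposed to graded compound concentrations for 4 h, TNF-α quantified in supernatant, LPS as positive and DMSO as negative control, values are duplicate means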
Protocol: THP-1 (American Type Culture Collection) cells, a human monocytic leukemia cell line, were differentiated by treatment with 100 nM PMA (Sigma) in Roswell Park Memorial Institute (RPMI) cell culture medium [RPMI containing 10% vol/vol FBS (Gemini Bio Products), 1% penicillin and streptomycin (Life Technologies)] for 24 h. After that, the cells were washed with PBS and cultured in fresh RPMI cell culture medium for 24 h before use in studies. PMA-differentiated THP-1 cells were seeded onto 96-well plates at 0.5×10^5 cells per well and treated with systematically varied concentrations of the candidate compounds (dissolved in DMSO, and the final assay DMSO concentration (0.1%) was kept constant in all experiments) for 4 h. Ultra-pure LPS (dissolved in H2O, Enzo Life Sciences) was assessed alongside the compounds as a positive control and DMSO treated control was used as a negative control. Human TNF-α in the supernatants was measured by ELISA (eBioscience). This assay was used for establishing dose-response curves and measured EC50's. EC50's were calculated by Graphpad Prism. All data is the mean of duplicates and SD is within +10% of mean.

TLR1/TLR2 [2] = biological target: TLR1/TLR2 (Mus musculus, UniProt Q9EPQ1+Q9QUN7); test: TNF-α release from thioglycolate-elicited mouse peritoneal macrophages (ELISA); settings: for Emax: 4 h, read-out: Efficacy (magnitude) of response versus diprovocim-1 (100%), mouse macrophages; for EC50: read-out: EC50 (nM) (mouse): EC50 TNF-α release from mouse macrophages
Chain of TLR1/TLR2 (Mus musculus, UniProt Q9EPQ1+Q9QUN7) (Q9EPQ1 26-795): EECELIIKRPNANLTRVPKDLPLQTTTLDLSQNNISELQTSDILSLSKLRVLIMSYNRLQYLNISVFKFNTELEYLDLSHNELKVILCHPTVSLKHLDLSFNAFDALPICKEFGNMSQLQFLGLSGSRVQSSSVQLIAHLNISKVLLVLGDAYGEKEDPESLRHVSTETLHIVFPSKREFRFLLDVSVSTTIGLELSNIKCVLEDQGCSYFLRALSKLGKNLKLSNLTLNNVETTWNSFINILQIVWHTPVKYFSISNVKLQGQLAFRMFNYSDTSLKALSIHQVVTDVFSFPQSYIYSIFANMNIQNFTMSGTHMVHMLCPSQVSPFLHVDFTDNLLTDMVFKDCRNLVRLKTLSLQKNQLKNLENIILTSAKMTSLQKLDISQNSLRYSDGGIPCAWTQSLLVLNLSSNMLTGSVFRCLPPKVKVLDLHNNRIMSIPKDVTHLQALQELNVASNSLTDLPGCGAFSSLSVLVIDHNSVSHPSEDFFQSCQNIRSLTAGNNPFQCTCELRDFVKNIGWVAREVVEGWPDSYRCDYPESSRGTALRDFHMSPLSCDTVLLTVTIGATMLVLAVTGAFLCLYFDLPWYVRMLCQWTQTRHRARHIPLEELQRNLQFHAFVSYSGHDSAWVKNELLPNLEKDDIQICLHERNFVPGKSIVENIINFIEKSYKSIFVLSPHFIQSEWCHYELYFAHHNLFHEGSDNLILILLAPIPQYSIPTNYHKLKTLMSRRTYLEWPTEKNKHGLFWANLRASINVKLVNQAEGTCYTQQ
Chain of TLR1/TLR2 (Mus musculus, UniProt Q9EPQ1+Q9QUN7) (Q9QUN7 25-784): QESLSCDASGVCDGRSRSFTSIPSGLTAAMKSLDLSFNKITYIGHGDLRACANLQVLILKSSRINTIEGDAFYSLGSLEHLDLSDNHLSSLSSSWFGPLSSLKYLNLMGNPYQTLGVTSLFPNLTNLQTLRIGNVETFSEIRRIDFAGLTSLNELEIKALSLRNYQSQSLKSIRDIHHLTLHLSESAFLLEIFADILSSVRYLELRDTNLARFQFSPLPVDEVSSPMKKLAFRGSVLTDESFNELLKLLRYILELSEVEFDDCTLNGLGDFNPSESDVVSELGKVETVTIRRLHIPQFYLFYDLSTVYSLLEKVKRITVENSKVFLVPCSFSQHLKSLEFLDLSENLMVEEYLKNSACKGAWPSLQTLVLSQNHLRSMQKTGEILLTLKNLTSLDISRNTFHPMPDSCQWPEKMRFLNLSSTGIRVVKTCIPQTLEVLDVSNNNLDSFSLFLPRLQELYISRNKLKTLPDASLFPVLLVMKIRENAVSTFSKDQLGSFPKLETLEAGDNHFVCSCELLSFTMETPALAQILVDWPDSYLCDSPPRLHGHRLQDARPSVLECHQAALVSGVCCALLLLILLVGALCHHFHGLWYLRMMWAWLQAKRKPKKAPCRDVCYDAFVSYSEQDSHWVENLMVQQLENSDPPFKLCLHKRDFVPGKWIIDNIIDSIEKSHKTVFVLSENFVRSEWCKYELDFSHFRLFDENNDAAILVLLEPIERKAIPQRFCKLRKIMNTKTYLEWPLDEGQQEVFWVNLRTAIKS

Chain of TLR1/TLR2 (Homo sapiens, UniProt O60603+Q15399) (Q15399 25-786): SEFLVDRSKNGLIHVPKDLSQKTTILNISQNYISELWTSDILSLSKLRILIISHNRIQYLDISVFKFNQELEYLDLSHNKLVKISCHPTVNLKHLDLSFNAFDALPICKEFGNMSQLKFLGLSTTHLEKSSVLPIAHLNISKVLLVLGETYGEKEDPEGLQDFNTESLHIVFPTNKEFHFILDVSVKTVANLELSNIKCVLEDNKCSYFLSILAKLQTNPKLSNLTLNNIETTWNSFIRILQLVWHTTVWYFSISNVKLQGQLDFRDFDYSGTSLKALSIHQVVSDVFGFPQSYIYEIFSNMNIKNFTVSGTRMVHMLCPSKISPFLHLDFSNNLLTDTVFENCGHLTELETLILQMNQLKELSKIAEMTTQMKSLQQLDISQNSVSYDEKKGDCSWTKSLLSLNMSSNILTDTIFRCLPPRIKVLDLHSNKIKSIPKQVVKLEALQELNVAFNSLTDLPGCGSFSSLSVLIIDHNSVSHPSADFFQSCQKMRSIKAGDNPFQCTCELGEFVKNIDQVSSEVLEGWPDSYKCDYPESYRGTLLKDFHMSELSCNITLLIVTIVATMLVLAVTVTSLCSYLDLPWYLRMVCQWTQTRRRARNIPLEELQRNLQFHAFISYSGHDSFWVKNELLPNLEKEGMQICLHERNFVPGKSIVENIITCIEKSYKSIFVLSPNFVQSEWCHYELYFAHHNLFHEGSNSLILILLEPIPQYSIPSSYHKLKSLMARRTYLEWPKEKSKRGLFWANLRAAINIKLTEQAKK
Chain of TLR1/TLR2 (Homo sapiens, UniProt O60603+Q15399) (O60603 21-784): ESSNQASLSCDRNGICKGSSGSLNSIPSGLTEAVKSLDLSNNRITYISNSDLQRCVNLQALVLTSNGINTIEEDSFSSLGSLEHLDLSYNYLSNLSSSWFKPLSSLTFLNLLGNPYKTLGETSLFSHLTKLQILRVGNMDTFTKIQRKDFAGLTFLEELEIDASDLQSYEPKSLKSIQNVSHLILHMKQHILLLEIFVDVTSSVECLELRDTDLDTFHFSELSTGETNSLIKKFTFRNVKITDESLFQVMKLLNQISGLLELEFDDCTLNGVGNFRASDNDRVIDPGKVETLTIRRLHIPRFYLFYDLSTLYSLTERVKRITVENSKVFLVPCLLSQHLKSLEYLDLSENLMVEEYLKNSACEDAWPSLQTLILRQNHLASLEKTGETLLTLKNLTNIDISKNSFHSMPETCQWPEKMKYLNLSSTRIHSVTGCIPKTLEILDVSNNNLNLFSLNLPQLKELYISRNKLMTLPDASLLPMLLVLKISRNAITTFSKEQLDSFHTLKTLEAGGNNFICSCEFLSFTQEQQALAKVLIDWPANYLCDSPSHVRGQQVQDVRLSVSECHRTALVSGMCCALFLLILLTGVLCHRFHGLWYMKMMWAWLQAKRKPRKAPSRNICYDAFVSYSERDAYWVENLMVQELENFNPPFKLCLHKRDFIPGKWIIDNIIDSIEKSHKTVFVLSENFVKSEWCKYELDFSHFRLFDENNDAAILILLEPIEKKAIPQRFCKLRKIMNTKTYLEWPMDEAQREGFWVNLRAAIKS

SMILES | Emax (TLR1/TLR2 [1]) [%] | EC50 (TLR1/TLR2 [1]; Table 5) [nM] | Emax (TLR1/TLR2 [2]) [%] | EC50 (TLR1/TLR2 [2]; Table 5) [nM] | EC50 (TLR1/TLR2 [1]; Table 3) [nM] | EC50 (TLR1/TLR2 [2]; Table 3) [nM] | EC50 (TLR1/TLR2 [1]; Table 1) [nM] | EC50 (TLR1/TLR2 [2]; Table 1) [nM] | EC50 (TLR1/TLR2 [1]; Table 6) [nM] | EC50 (TLR1/TLR2 [2]; Table 6) [nM]
Cc1ccc(S(=O)(=O)n2cnc(C[C@H](NC(=O)OC(C)(C)C)C(=O)OCCCCCCCCCCCCNC(=O)[C@@H]3CN(C(=O)c4ccc(C(=O)N5C[C@@H](C(=O)N[C@H]6C[C@@H]6c6ccccc6)[C@H](C(=O)N[C@H]6C[C@@H]6c6ccccc6)C5)cc4)C[C@H]3C(=O)N[C@H]3C[C@@H]3c3ccccc3)c2)cc1 [Compound 68, (S)-12-((3S,4S)-1-(4-((3S,4S)-3,4-Bis(((1S,2R)-2-phenylcyclopropyl)carbamoyl)pyrrolidine-1-carbonyl)benzoyl)-4-(((1S,2R)-2-phenylcyclopropyl)carbamoyl)pyrrolidine-3-carboxamido)-dodecyl 2-((tert-butoxy-carbonyl)amino)-3-(1-tosyl-1H-imidazol-4-yl)propanoate] | 90 | 17 | 110 | 35 | – | – | – | – | – | –
O=C(NCCCCCCCCCCCCOCc1ccc([N+](=O)[O-])cc1)[C@@H]1CN(C(=O)c2ccc(C(=O)N3C[C@@H](C(=O)N[C@H]4C[C@@H]4c4ccccc4)[C@H](C(=O)N[C@H]4C[C@@H]4c4ccccc4)C3)cc2)C[C@H]1C(=O)N[C@H]1C[C@@H]1c1ccccc1 [Compound 51, (3S,4S)-1-(4-((3S,4S)-3,4-Bis(((1S,2R)-2-phenylcyclo-propyl)carbamoyl)pyrrolidine-1-carbonyl)-benzoyl)-N^3-(12-((4-nitrobenzyl)oxy)dodecyl)-N^4-((1S,2R)-2-phenyl-cyclopropyl)pyrrolidine-3,4-dicarboxamide] | 110 | – | 230 | – | 0.25 | 0.85 | – | – | – | –
C#CCCCCCCCCCCCCNC(=O)[C@@H]1CN(C(=O)c2ccc(C(=O)N3C[C@@H](C(=O)N[C@H]4C[C@@H]4c4ccccc4)[C@H](C(=O)N[C@H]4C[C@@H]4c4ccccc4)C3)cc2)C[C@H]1C(=O)N[C@H]1C[C@@H]1c1ccccc1 [Compound 19, (3S,4S)-1-(4-((3S,4S)-3,4-Bis(((1S,2R)-2-phenylcyclo-propyl)carbamoyl)pyrrolidine-1-carbonyl)-benzoyl)-N^3-((1S,2R)-2-phenylcyclopropyl)-N^4-(tetradec-13-yn-1-yl)pyrrolidine-3,4-dicarboxamide] | 120 | – | 180 | – | – | – | 0.04 | 1.3 | – | –
CC(C)(C)OC(=O)NCC(=O)NCCCCCCCCCCCCNC(=O)[C@@H]1CN(C(=O)c2ccc(C(=O)N3C[C@@H](C(=O)N[C@H]4C[C@@H]4c4ccccc4)[C@H](C(=O)N[C@H]4C[C@@H]4c4ccccc4)C3)cc2)C[C@H]1C(=O)N[C@H]1C[C@@H]1c1ccccc1 [Compound 18, tert-Butyl (2-((12-((3S,4S)-1-(4-((3S,4S)-3,4-bis-(((1S,2R)-2-phenylcyclopropyl)carbamoyl)pyrrolidine-1-carbonyl)-benzoyl)-4-(((1S,2R)-2-phenyl-cyclopropyl)-carbamoyl)pyrrolidine-3-carboxamido)-dodecyl)amino)-2-oxoethyl)carbamate] | 90 | – | 90 | – | – | – | 0.33 | 170 | – | –
Nc1ccc(C(=O)OCCCCCCCCCCCCNC(=O)[C@@H]2CN(C(=O)c3ccc(C(=O)N4C[C@@H](C(=O)N[C@H]5C[C@@H]5c5ccccc5)[C@H](C(=O)N[C@H]5C[C@@H]5c5ccccc5)C4)cc3)C[C@H]2C(=O)N[C@H]2C[C@@H]2c2ccccc2)cc1 [Compound 74, 12-((3S,4S)-1-(4-((3S,4S)-3,4-Bis(((1S,2R)-2-phenyl-cyclopropyl)carbamoyl)pyrrolidine-1-carbonyl)benzoyl)-4-(((1S,2R)-2-phenylcyclopropyl)carbamoyl)-pyrrolidine-3-carboxamido)-dodecyl 4-aminobenzoate] | 100 | – | 300 | – | – | – | – | – | 0.05 | 0.67
N#CCC(=O)OCCCCCCCCCCCCNC(=O)[C@@H]1CN(C(=O)c2ccc(C(=O)N3C[C@@H](C(=O)N[C@H]4C[C@@H]4c4ccccc4)[C@H](C(=O)N[C@H]4C[C@@H]4c4ccccc4)C3)cc2)C[C@H]1C(=O)N[C@H]1C[C@@H]1c1ccccc1 [Compound 33, 12-((3S,4S)-1-(4-((3S,4S)-3,4-Bis(((1S,2R)-2-phenylcyclopropyl)carbamoyl)pyrrolidine-1-carbonyl)benzoyl)-4-(((1S,2R)-2-phenylcyclopropyl)-carbamoyl)pyrrolidine-3-carboxamido)dodecyl 2-cyanoacetate] | 100 | – | 120 | – | 0.25 | 4.5 | – | – | – | –
O=C(NCCCCCCCCCCCCS)[C@@H]1CN(C(=O)c2ccc(C(=O)N3C[C@@H](C(=O)N[C@H]4C[C@@H]4c4ccccc4)[C@H](C(=O)N[C@H]4C[C@@H]4c4ccccc4)C3)cc2)C[C@H]1C(=O)N[C@H]1C[C@@H]1c1ccccc1 [Compound 21, (3S,4S)-1-(4-((3S,4S)-3,4-Bis(((1S,2R)-2-phenyl-cyclopropyl)carbamoyl)pyrrolidine-1-carbonyl)-benzoyl)-N^3-(12-mercaptododecyl)-N^4-((1S,2R)-2-phenyl-cyclo-propyl)pyrrolidine-3,4-dicarboxamide] | – | – | – | – | – | – | 0.5 | 5 | – | –
CC(C)(C)OC(=O)c1ccc(C(=O)OCCCCCCCCCCCCNC(=O)[C@@H]2CN(C(=O)c3ccc(C(=O)N4C[C@@H](C(=O)N[C@H]5C[C@@H]5c5ccccc5)[C@H](C(=O)N[C@H]5C[C@@H]5c5ccccc5)C4)cc3)C[C@H]2C(=O)N[C@H]2C[C@@H]2c2ccccc2)cc1 [Compound 77, 12-((3S,4S)-1-(4-((3S,4S)-3,4-Bis(((1S,2R)-2-phenylcyclopropyl)carbamoyl)pyrrolidine-1-carbonyl)benzoyl)-4-(((1S,2R)-2-phenyl-cyclopropyl)carbamoyl)pyrrolidine-3-carboxamido)-dodecyl tert-butyl terephthalate] | 90 | – | 190 | – | – | – | – | – | 165 | 785
CC(C)(C)OC(=O)CNC(=O)CCCCCCCCCCCNC(=O)[C@@H]1CN(C(=O)c2ccc(C(=O)N3C[C@@H](C(=O)N[C@H]4C[C@@H]4c4ccccc4)[C@H](C(=O)N[C@H]4C[C@@H]4c4ccccc4)C3)cc2)C[C@H]1C(=O)N[C@H]1C[C@@H]1c1ccccc1 [Compound 14, tert-Butyl (12-((3S,4S)-1-(4-((3S,4S)-3,4-bis(((1S,2R)-2-phenylcyclopropyl)carbamoyl)-pyrrolidine-1-carbonyl)-benzoyl)-4-(((1S,2R)-2-phenylcyclopropyl)carbamoyl)pyrrolidine-3-carboxamido)dodecanoyl)glycinate] | 100 | – | 70 | – | – | – | 20 | 25 | – | –
CN(CC(=O)OCCCCCCCCCCCCNC(=O)[C@@H]1CN(C(=O)c2ccc(C(=O)N3C[C@@H](C(=O)N[C@H]4C[C@@H]4c4ccccc4)[C@H](C(=O)N[C@H]4C[C@@H]4c4ccccc4)C3)cc2)C[C@H]1C(=O)N[C@H]1C[C@@H]1c1ccccc1)C(=O)OC(C)(C)C [Compound 70, 12-((3S,4S)-1-(4-((3S,4S)-3,4-Bis(((1S,2R)-2-phenyl-cyclopropyl)carbamoyl)pyrrolidine-1-carbonyl)-benzoyl)-4-(((1S,2R)-2-phenylcyclopropyl)carbamoyl)-pyrrolidine-3-carboxamido)-dodecyl 2-((tert-butoxycarbonyl)(methyl)amino)acetate] | 100 | 1.7 | 110 | 17 | – | – | – | – | – | –
CC(=O)OCCCCCCCCCCCCNC(=O)[C@@H]1CN(C(=O)c2ccc(C(=O)N3C[C@@H](C(=O)N[C@H]4C[C@@H]4c4ccccc4)[C@H](C(=O)N[C@H]4C[C@@H]4c4ccccc4)C3)cc2)C[C@H]1C(=O)N[C@H]1C[C@@H]1c1ccccc1 [Compound 32, 12-((3S,4S)-1-(4-((3S,4S)-3,4-Bis(((1S,2R)-2-phenyl-cyclopropyl)carbamoyl)pyrrolidine-1-carbonyl)benzoyl)-4-(((1S,2R)-2-phenylcyclopropyl)carbamoyl)pyrrolidine-3-carboxamido)dodecyl acetate] | 130 | – | 140 | – | 0.14 | 1.5 | – | – | – | –
CC(C)(C)OC(=O)N[C@@H](CSCc1ccccc1)C(=O)OCCCCCCCCCCCCNC(=O)[C@@H]1CN(C(=O)c2ccc(C(=O)N3C[C@@H](C(=O)N[C@H]4C[C@@H]4c4ccccc4)[C@H](C(=O)N[C@H]4C[C@@H]4c4ccccc4)C3)cc2)C[C@H]1C(=O)N[C@H]1C[C@@H]1c1ccccc1 [Compound 65, (R)-12-((3S,4S)-1-(4-((3S,4S)-3,4-Bis(((1S,2R)-2-phenylcyclopropyl)carbamoyl)pyrrolidine-1-carbonyl)-benzoyl)-4-(((1S,2R)-2-phenylcyclopropyl)carbamoyl)-pyrrolidine-3-carboxamido)dodecyl 3-(benzylthio)-2-((tert-butoxycarbonyl)amino)propanoate] | 100 | 18 | 200 | 360 | – | – | – | – | – | –
CC(C)(C)OC(=O)NC1(C(=O)OCCCCCCCCCCCCNC(=O)[C@@H]2CN(C(=O)c3ccc(C(=O)N4C[C@@H](C(=O)N[C@H]5C[C@@H]5c5ccccc5)[C@H](C(=O)N[C@H]5C[C@@H]5c5ccccc5)C4)cc3)C[C@H]2C(=O)N[C@H]2C[C@@H]2c2ccccc2)CC1 [Compound 62, 12-((3S,4S)-1-(4-((3S,4S)-3,4-Bis(((1S,2R)-2-phenylcyclopropyl)carbamoyl)pyrrolidine-1-carbonyl)-benzoyl)-4-(((1S,2R)-2-phenylcyclopropyl)carbamoyl)-pyrrolidine-3-carboxamido)-dodecyl 1-((tert-butoxy-carbonyl)amino)cyclopropanecarboxylate] | 100 | 5 | 220 | 10 | – | – | – | – | – | –
